{"source": "patent EP4796540A2", "about": "“N-SULFONAMIDE NITROGEN-CONTAINING FUSED HETEROCYCLIC COMPOUND, AND APPLICATION THEREOF” (priority 2023, dated 2025)", "key": {"[1]": {"assay": "In vivo pharmacokinetic study in mice", "conditions": "mouse, plasma; CD-1 mice (male), IV 1 mg/kg; read-out: Clint", "description": "1. Experimental purpose: To test the pharmacokinetics of compounds in CD-1 mice. 2. Experimental instrument and materials: Animals: CD-1 mice (male) Instrument: Intravenous injection: 40% HP-β-CD in water; intragastric administration: 0.2% HPC + 0.5% Tween80 in water. 6 male mice. Fasting treatment was performed in the evening before the administration, with free access to water. During the experiment, the mice were allowed to eat and drink freely, and administered by intravenous injection or gavage. After administration, the animal status was observed, and abnormal behaviors were recorded. Blood was collected from the orbit at 0.0833, 0.25, 1, 2, 4, 8, and 24 hours after intravenous injection, and at 0.25, 0.5, 1, 2, 4, 6, 8, and 24 hours after intragastric administration. 20 µL of plasma sample was taken and added with 250 µL of acetonitrile (containing dexamethasone as an internal standard) to precipitate proteins. The mixture was centrifuged at 4°C and 4000 rpm for 20 minutes, and 180 µL of the supernatant was taken and mixed with 180 µL of an aqueous solution containing 0.1% formic acid in a 96-well plate. […] Unknown samples were calculated by the standard curve. Pharmacokinetic parameters were calculated by the non-compartmental analysis model of WinNonlin 8.2 software and were presented in a report, including Clint, Cmax, AUC, etc. […]"}, "[2]": {"system": "human gastric cancer NUGC-3 xenograft", "assay": "In vivo efficacy study in human gastric cancer NUGC-3 xenograft rat model", "set-up": "species or system B-Rag2/IL2rg KO SD rats", "conditions": "QD × 28 days, p.o., rats", "description": "1. Experimental purpose: To test the in vivo anti-tumor activity of compounds in the subcutaneous human gastric cancer NUGC-3 xenograft model in female B-Rag2/IL2rg KO SD rats. 2. Experimental materials: Animals: 7 to 9 weeks old female B-Rag2/IL2rg KO SD rats; Reagents:\nVehicle: 5% DMSO/10% Solutol HS 15/85% pH 4.65 ± 0.10 acetate buffer;\nCell culture: NUGC-3 cells were cultured in RPMI-1640 medium containing 10% FBS.\nMolding and grouping: NUGC-3 cells in the exponential growth phase (1 × 10^7) were harvested, resuspended in 0.2 mL of PBS and Matrigel (1:1), and then inoculated subcutaneously into the right flank of B-Rag2/IL2rg KO SD rats to establish a subcutaneous xenograft model. Rats were observed daily for healthy status and tumor growth after cell inoculation. On the 10th day after inoculation, 24 animals were selected, grouped, and the tumor volume of the animals in the group was approximately 199.0 mm^3. The study was divided into 4 groups, with 6 rats in each group, and the administration was performed on the same day (see Table 12).\n4. Experimental design: Table 12 is the grouping and administration information for the efficacy study. Rats in the G1 group were orally administered vehicle control (5% DMSO/10% Solutol HS 15/85% pH 4.65 ± 0.10 acetate buffer) once a day for a total of 28 days. Rats in the G2 group were orally administered Cpd-2 once a day at a dose of 6.25 mg/kg for a total of 28 days. Rats in the G3 group were orally administered Cpd-2 once a day at a dose of 12.5 mg/kg for a total of 28 days. Rats in the G4 group were orally administered Cpd-2 once a day at a dose of 25 mg/kg for a total of 28 days. Table 12. In vivo efficacy study design of NUGC-3 xenograft rat model\nExperimental observation: The health status and mortality of the animals were monitored daily. Routine checks included the effect of tumor growth and drug treatment on animals' normal behavior such as mobility, food and water consumption, body weight gain/loss, eye/hair matting and any other abnormal effect. The number of deaths and side effects of the animals in the group were recorded based on the number of the animals in each group. Clinical symptoms observed during the trial were recorded in the raw data. Tumor volume calculation formula: Tumor volume (mm^3) = 0.5 × (tumor long diameter × tumor short diameter^2). During the research process, the entire administration process as well as tumor and body weight measurements were conducted in a Laminar Flow Cabinet.\nData processing: Percentage of tumor growth inhibition TGITV (%): TGITV % = (1 - ΔT/ΔC) × 100%; Wherein ΔC is the tumor volume Ct - C0 for the control group, C0 is the average tumor volume of the control group at the time of grouping, and Ct is the average tumor volume of the control group after treatment; ΔT is the tumor volume Tt - T0 for the treatment group, T0 is the average tumor volume of the treatment group at the time of grouping, and Tt is the average tumor volume of the treatment group after treatment.\nStatistical analysis: Tumor volume and animal body weight results are expressed in Mean ± SEM. Tumor volumes between different groups were statistically compared and analyzed. All statistical analyses were completed in https://d2k.bio/Efficacy/Invivo. The wilcox.test nominal method was used to compare whether there was a significant difference in tumor volume or tumor weight between groups, where p ≥ 0.05 was considered as having no significant difference, p < 0.05 was considered as having a significant difference, and p < 0.01 was considered as having an extremely significant difference."}}, "note": "Where “and” joins values, the source holds several entries; their conditions need not be identical. Equal entries are not always repeated."}
{"smiles": "[2H]C([2H])([2H])Oc1nc(C(=O)NS(C)(=O)=O)ccc1NCC#Cc1cc2c(N[C@@H]3CCN(C)C[C@@H]3F)cccn2c1CC(F)(F)F", "note": "[Cpd-2, 5-((3-(8-(((3S,4R)-3-Fluoro-1-methylpiperidin-4-yl)amino)-3-(2,2,2-trifluoroethyl)indolizin-2-yl)prop-2-yn-1-yl)amino)-6-(methoxy-d3)-N-(methylsulfonyl)picolinamide]", "values": [{"measurement": "clearance", "setting": "[1]", "result": 15, "unit": "mL/min/kg"}, {"measurement": "TGITV (%) (at 28 days)", "setting": "[2]; 6.25 mg/kg", "result": 92.9, "unit": "%"}, {"measurement": "Tumor volume (mm^3) (Mean ± SEM) (at 28 days)", "setting": "[2]; 6.25 mg/kg", "result": "395.0 mm^3 and 395.0 ± 63.1 mm^3"}, {"measurement": "TGITV (%) (at 28 days)", "setting": "[2]; 12.5 mg/kg", "result": 102.9, "unit": "%"}, {"measurement": "Tumor volume (mm^3) (Mean ± SEM) (at 28 days)", "setting": "[2]; 12.5 mg/kg", "result": "119.2 mm^3 and 119.2 ± 10.2 mm^3"}, {"measurement": "TGITV (%) (at 28 days)", "setting": "[2]; 25 mg/kg", "result": 104.7, "unit": "%"}, {"measurement": "Tumor volume (mm^3) (Mean ± SEM) (at 28 days)", "setting": "[2]; 25 mg/kg", "result": "70.1 mm^3 and 70.1 ± 14.9 mm^3"}]}
